The values below are quoted from earlier work in patent US20070135444A1, “Treatment of neuroblastoma” (priority 2002, published 2007).

For the data set the following is noted: pediatric phase I trial; no maximal dose tolerated reached up to this dose.

Where only a bound is given, the exact number is not on record here.

Take `CS(=O)(=O)O.Cc1ccc(NC(=O)c2ccc(CN3CCN(C)CC3)cc2)cc1Nc1nccc(-c2cccnc2)n1` [SALT I]: the maximal dose tolerated is on record as over 570 mg/m^2/day.
